Series [1] concerns the target T1, Calcium/calmodulin-dependent protein kinase type II subunit alpha (Rattus norvegicus, UniProt P11275). Kind of series: Displacement of [3H]NCS-382 from CaMK2alpha in rat brain cerebral cortex membrane homogenates assessed as inhibition constant measured after 60 mins by TopCount scintillation counting method. The series is classed as cell membranes. For orientation: In a radioligand displacement assay an active substance lowers the binding of a labelled ligand.

Series [2] deals with Calcium/calmodulin-dependent protein kinase type II subunit alpha (Homo sapiens, UniProt Q9UQM7). Kind of series: Inhibition of [3H]NCS-382 binding to CaMK2alpha (unknown origin).
Sequence of Calcium/calmodulin-dependent protein kinase type II subunit alpha (Homo sapiens, UniProt Q9UQM7) (Q9UQM7 whole entry): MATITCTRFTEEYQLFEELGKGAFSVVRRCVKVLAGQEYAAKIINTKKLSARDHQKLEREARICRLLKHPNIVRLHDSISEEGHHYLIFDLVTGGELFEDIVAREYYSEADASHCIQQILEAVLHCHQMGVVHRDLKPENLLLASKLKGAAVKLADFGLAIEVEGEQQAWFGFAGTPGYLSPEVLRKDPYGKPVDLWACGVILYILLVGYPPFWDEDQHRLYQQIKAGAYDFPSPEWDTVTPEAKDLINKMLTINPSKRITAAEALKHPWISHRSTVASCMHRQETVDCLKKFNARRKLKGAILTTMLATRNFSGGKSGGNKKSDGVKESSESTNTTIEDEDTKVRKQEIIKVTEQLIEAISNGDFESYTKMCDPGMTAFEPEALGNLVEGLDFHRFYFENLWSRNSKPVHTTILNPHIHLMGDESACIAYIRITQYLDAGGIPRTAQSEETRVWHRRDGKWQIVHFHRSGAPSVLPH
The target of series [3] is Calcium/calmodulin-dependent protein kinase type II subunit alpha (Rattus norvegicus) (UniProt P11275). Kind of series: Inhibition of [3H]NCS-382 binding to CaMK2alpha in rat brain cerebral cortex membrane homogenates at 100 uM measured after 60 mins by TopCount scintillation counting method relative to control. It is filed as cell membranes.
Sequence of Calcium/calmodulin-dependent protein kinase type II subunit alpha (Rattus norvegicus) (P11275 whole entry): as the sequence (Q9UQM7 whole entry) above, with S324N counted along it
Series [4] addresses T1, Calcium/calmodulin-dependent protein kinase type II subunit alpha. Kind of series: Displacement of [3H]HOCPCA from CaMK2alpha in rat brain cerebral cortex membrane homogenates assessed as inhibition constant measured after 60 mins by TopCount scintillation counting method. It is filed as cell membranes.
Series [5] can be described thus: Ratio of drug concentration in brain to plasma in C57BL/6J mouse at 10 mg/kg , po measured after 30 mins by UPLC based tandem mass spectrometry analysis. The series is classed as ADME, organism-based. The conditions noted are these: read-out: BPR.
A short description of series [6]: Brain concentration in C57BL/6J mouse at 10 mg/kg , po measured after 30 mins by UPLC based tandem mass spectrometry analysis. The series is classed as ADME, organism-based. Particulars: read-out: Ct.
Series [7] in a line: Plasma concentration in C57BL/6J mouse at 10 mg/kg , po measured after 30 mins by UPLC based tandem mass spectrometry analysis. It is filed as ADME, organism-based.
Series [8] in a line: Plasma concentration in C57BL/6J mouse at 5 mg/kg , sc measured after 30 mins by UPLC based tandem mass spectrometry analysis. It is filed as ADME, organism-based.
The subject of series [9] is BCRP. Kind of series: Apparent permeability across apical to basolateral side in dog MDCK-II cells expressing BCRP at 3 uM measured after 60 to 90 mins by LC-MS/MS analysis. It is filed as ADME, cell-based, Canis lupus familiaris. Particulars: time 60-90 min.
For series [10], the system named is BCRP. Kind of series: Apparent permeability across apical to basolateral side in dog MDCK-II cells expressing BCRP at 3 uM preincubated with BCRP inhibitor, Ko 143 for 15 to 30 mins followed by compound addition and measured after 60 to 90 mins by LC-MS/MS analysis. It is filed as ADME, cell-based, Canis lupus familiaris. The conditions noted are these: with Ko 143 (BCRP inhibitor; concentration not stated), time 60-90 min.

For series [11], the system named is BCRP. Kind of series: Apparent permeability across basolateral to apical side in dog MDCK-II cells expressing BCRP at 3 uM measured after 60 to 90 mins by LC-MS/MS analysis. It is filed as ADME, cell-based, Canis lupus familiaris. Particulars: time 60-90 min.
Series [12] can be described thus: Chemical stability of compound in PBS buffer at pH 7.4 assessed as half life at 25 degreeC incubated for 7 days by HPLC based LC-MS analysis. The series is classed as physicochemical. Particulars: time 7 day.
The subject of series [13] is MDR1 (P-gp). Kind of series: Apparent permeability across apical to basolateral side in dog MDCKII-MDR1 cells at 3 uM preincubated with P-gp inhibitor elacridar for 15 to 30 mins followed by compound addition and measured after 60 to 90 mins by LC-MS/MS analysis. The series is classed as ADME, cell-based, Canis lupus familiaris. The conditions noted are these: MDCK-MDR1, with elacridar (P-gp inhibitor; concentration not stated), time 60-90 min.

Series [14] in a line: Ratio of drug concentration in brain to plasma in C57BL/6J mouse at 5 mg/kg , sc measured after 30 mins by UPLC based tandem mass spectrometry analysis. The series is classed as ADME, organism-based. The conditions noted are these: read-out: BPR.
Series [15] has as its system MDR1 (P-gp). Kind of series: Apparent permeability across apical to basolateral side in dog MDCKII-MDR1 cells at 3 uM measured after 60 to 90 mins by LC-MS/MS analysis. The series is classed as ADME, cell-based, Canis lupus familiaris. The conditions noted are these: MDCK-MDR1, time 60-90 min.
For series [16], the system named is MDR1 (P-gp). Kind of series: Apparent permeability across basolateral to apical side in dog MDCKII-MDR1 cells at 3 uM preincubated with P-gp inhibitor elacridar for 15 to 30 mins followed by compound addition and measured after 60 to 90 mins by LC-MS/MS analysis. It is filed as ADME, cell-based, Canis lupus familiaris. The conditions noted are these: MDCK-MDR1, with elacridar (P-gp inhibitor; concentration not stated), time 60-90 min.

The test system of series [17] is MDR1 (P-gp). Kind of series: Apparent permeability across basolateral to apical side in dog MDCKII-MDR1 cells at 3 uM measured after 60 to 90 mins by LC-MS/MS analysis. It is filed as ADME, cell-based, Canis lupus familiaris. The conditions noted are these: MDCK-MDR1, time 60-90 min.
A short description of series [18]: Chemical stability of compound in PBS buffer at pH 7.4 assessed as half life at 37 degreeC incubated for 7 days by HPLC based LC-MS analysis. It is filed as physicochemical. The conditions noted are these: time 7 day.
In series [19] the test system is BCRP. Kind of series: Apparent permeability across basolateral to apical side in dog MDCK-II cells expressing BCRP at 3 uM preincubated with BCRP inhibitor, Ko 143 for 15 to 30 mins followed by compound addition and measured after 60 to 90 mins by LC-MS/MS analysis. It is filed as ADME, cell-based, Canis lupus familiaris. The conditions noted are these: with Ko 143 (BCRP inhibitor; concentration not stated), time 60-90 min.

Series [20] in a line: Brain concentration in C57BL/6J mouse at 5 mg/kg , sc measured after 30 mins by UPLC based tandem mass spectrometry analysis. The series is classed as ADME, organism-based. The conditions noted are these: read-out: Ct.
Series [21] in a line: Chemical stability of compound in PBS buffer at pH 7.4 assessed as oxidized intermediate formation at 25 to 37 degreeC incubated for 7 days by HPLC based LC-MS analysis. Particulars: pH 7.4, 168 h, time 7 day. It is filed as physicochemical.
A short description of series [22]: Chemical stability of compound in PBS buffer at pH 7.4 assessed as cyclized intermediate formation at 25 to 37 degreeC incubated for 7 days by HPLC based LC-MS analysis. It is filed as physicochemical. The conditions noted are these: pH 7.4, 168 h, time 7 day.
Series [23] addresses T1, Calcium/calmodulin-dependent protein kinase type II subunit alpha. Kind of series: Inhibition of [3H]NCS-382 binding to CaMK2alpha in rat cerebrocortical membranes. It is filed as cell membranes, Cerebral cortex, Membrane.

T1 sequence (P11275 whole entry): as the sequence (Q9UQM7 whole entry) above, with S324N counted along it

On to `O=C(O)Cc1cc(O)ccc1Oc1ccccc1O`, for which the Ki in series [1] was 33 nM.

Regarding `O=C(O)Cc1ccc(O)cc1Cc1ccccc1`, in series [1], the inhibitory constant (Ki) turned out to be 500 nM.

With `O=C(O)Cc1ccccc1Nc1c(Cl)cc(O)cc1Cl` [4'-HYDROXY-DICLOFENAC], the inhibition constant Ki in series [2] was found to be 2100 nM.

On to `O=C(O)Cc1ccc(O)cc1Oc1c(Cl)cccc1Cl`, for which the inhibition constant (Ki) in series [1] came to 31 nM.

`O=c1[nH]nc(Cc2cc(O)ccc2Oc2ccccc2Cl)[nH]1`: in series [1], the Ki stood at 420 nM.

In the case of `O=C(O)/C=C/c1ccccc1` [CINNAMIC ACID], in [2], the Ki is > 100000 nM.

In the case of `O=C(O)Cc1ccc(O)cc1Sc1ccccc1`, the inhibitory constant (Ki) in series [1] was 77 nM.

For the compound `O=C1Cc2cc(O)ccc2N1c1c(Cl)cccc1Cl`, the inhibition in series [3] is < 50%. For the same compound, the Ki in series [1] is > 100000 nM.

For `O=c1[nH]c(Cc2cc(O)ccc2Oc2ccccc2Cl)no1`, in series [1], the Ki was found to be 1200 nM.

Regarding `O=C(O)C(F)(F)c1cc(O)ccc1Oc1ccccc1Cl`, in series [1], the Ki came out at 1200 nM.

On to `O=C(O)Cc1cc(O)ccc1Oc1ccc([N+](=O)[O-])cc1Cl`, for which the Ki in series [1] was determined as 14 nM.

With `Oc1ccc(Oc2ccccc2Cl)c(Cc2nnn[nH]2)c1`, the Ki was 94 nM in [4] and 70 nM in [1]. Also, in series [5], the Kp at 0.5 h worked out at 0.012. For the same compound, the concentration at 0.5 h in [6] worked out at 22 ng/mL; in [7] it was 1970 ng/mL.

For the compound `Oc1ccc(Oc2ccccc2Cl)c(-c2nnn[nH]2)c1`, the Ki was 40000 nM in series [4] and 25000 nM in [1].

`Oc1ccc(Oc2ccccc2Cl)c(Cc2cc(O)no2)c1`: the inhibition constant (Ki) in series [1] amounted to 20000 nM.

Take `O=C(O)/C=C/c1ccc(O)cc1` [COUMARIC ACID]: the Ki in series [2] was > 100000 nM.

`O=C(O)Cc1ccc(O)cc1Oc1ccccc1`: in series [1], the Ki is 47 nM.

For the compound `O=C(O)Cc1ccc(O)cc1Nc1c(Cl)cccc1Cl`, the concentration at 0.5 h was 6790 ng/mL in [8] and 88 ng/mL in series [20]. The apparent permeability from apical to basolateral (Papp A→B) at 3 µM in the series on BCRP [9] worked out at 1.25 ×10⁻⁶ cm/s; in the series on BCRP [10], 3.05 ×10⁻⁶ cm/s; with MDR1 (P-gp) [13], 4.15 ×10⁻⁶ cm/s; with MDR1 (P-gp) [15], 4.66 ×10⁻⁶ cm/s. The Papp B→A at 3 µM came out at 19.1 ×10⁻⁶ cm/s with BCRP [11], 2.71 ×10⁻⁶ cm/s in the series on MDR1 (P-gp) [16], 3.73 ×10⁻⁶ cm/s with MDR1 (P-gp) [17] and 4.03 ×10⁻⁶ cm/s in the series on BCRP [19]. In addition, the values for the half-life in series [12] and in [18] were 10 h and 24 h, respectively. For the same compound, the Kp at 0.5 h in series [14] was found to be 0.013.

For `O=C(O)Cc1ccc(O)cc1Oc1ccccc1Cl`, the Stability entry in series [21] and in series [22] was “Stable” throughout. In addition, the Ki stood at 53 nM in [4] and 27 nM in [1]. In series [5], the Kp at 0.5 h amounted to 0.011. In addition, the concentration at 0.5 h is 308 ng/mL in [6] and 29400 ng/mL in series [7].

For `O=C(O)Cc1cccc(O)c1` [3-Hydroxyphenylacetate], in series [23], the IC50 came out at 130 nM and the inhibitory constant (Ki) was 126 nM.

As for `O=C(O)Cc1cc(O)ccc1Oc1c(Cl)cccc1Cl`, the inhibitory constant (Ki) in [1] is 70 nM.

For the compound `O=C(O)CCCO` [OXYBATE], the Ki in series [2] came to 4300 nM.

As to `O=C(O)Cc1ccccc1Oc1ccc(O)cc1CC(=O)O`, the Ki in [1] was found to be 830 nM.

Consider `O=C(O)Cc1ccc(O)cc1`, for which the inhibition constant Ki in [2] was determined as 2200 nM.

Regarding `O=C(O)Cc1ccccc1O`, in series [23], the IC50 stood at 2100 nM and the Ki is 2000 nM.

With `O=C(O)Cc1ccccc1Nc1c(Cl)cccc1Cl` [DICLOFENAC], the Ki in [1] stood at 5100 nM.

`NC(=O)Cc1cc(O)ccc1Oc1ccccc1Cl`: the inhibition in series [3] was < 50%. The inhibition constant Ki in [1] was > 100000 nM.

Broadly, the Ki is a measure of affinity in units of concentration, obtained from inhibition or displacement. The term inhibition denotes how much of the control response was suppressed. The Papp A→B is the apparent permeability from the apical to the basolateral side of a cell layer. The Papp B→A is how fast a substance crosses the layer from the basolateral side. What is called half-life is the time in which the quantity being followed falls by half. In general, IC50 refers to the concentration that gives 50% inhibition.

These data come from ChEMBL document CHEMBL5154898, “Discovery and Optimization of 5-Hydroxy-Diclofenac toward a New Class of Ligands with Nanomolar Affinity for the CaMKIIα Hub Domain” (J Med Chem, 2022).
